The test system of assay [1] is ticks (Amblyomma americanum). Description: Surrogate Animal bioassay, topical exposure on rats. The format is in vivo. Conditions: formulated in ethanol, 48 h. As for the experimental part: Surrogate Animal bioassay/ticks(Amblyomma americanum) and fleas:
Topical exposure—Test materials are formulated in ethanol or acetone at the desired testing concentrations, typically 6% active ingredient or lower. Either doubling or log-dilutions are performed in ethanol to obtain additional testing concentrations (3.0, 0.3, 0.03, and 0.003 mg/cm^3). A tick containment unit is affixed to the back or adult male or female rats, and 0.05 ml of formulated test material is applied topically to the surface area inside of the containment unit. Materials are allowed to dry overnight, after which time 10 unfed dog tick nymphs are placed into each containment unit. A total of 5 rats are normally used for each test concentration. Ticks are allowed to attach and feed on treated animals for 48 h, after which time containment units are opened and live/dead ticks are enumerated. Rats may be co-infested with adult cat fleas at the time of tick infestation to obtain data for topical insecticide activity using the same animal.

Assay [2] concerns Lone Star Tick. The assay can be described thus: Larval Packet Test (LPT). How it is done: Larval Packet Test (LPT)/Ticks: Test material is formulated in a 2:1 ratio of trichloroethylene: olive oil. Tissue biopsy bags are saturated with 1 ml of formulated material (n=3 per test level), and bags are allowed to dry under a fume hood for at least 2 hours. Approximately 50-100 larval-stage ticks are placed into each bag, and the bag is sealed using a plastic dialysis clip and incubated for 24 h at 27° C. and 95% relative humidity. Bags are then opened, and live/dead ticks are enumerated. Nonlinear regression is used to model dose-mortality relationship and obtain relative potency (LD50) data compared to contemporaneous controls (solvent-only or fipronil).

Assay [3] relates to Horn Fly (Haematobia irritans). The assay can be described thus: Cattle Ectoparasiticide Test, pour-on or spray against horn flies. Type of assay: in vivo. From the text:
(§1) Cattle Ectoparasiticide Test (CET)/Horn Fly (Haematobia irritans) and/or Adult Tick (Amblyomma americanum): Cattle are housed in environmentally controlled rooms, 1 or 2 animals per room that have screened doors and ventilation system to prevent fly escape. Following treatment application, a defined number of horn flies are released into each room (typically at or above economic threshold of 200 flies per animal). After defined periods of time, the numbers of live horn flies remaining on animals are enumerated. If a combination horn fly and tick experiment is conducted, adult lone star ticks are placed into surgical stockinette enclosures that are glued onto the backs of cattle. Cattle are restrained in a modified head gate within environmentally controlled rooms. Horn flies may be enumerated, followed by determination of the numbers of dead ticks inside of containment units. Typically there are 2 containment units per animal and at least 2 animals per treatment group.
B) Therapeutic and residual efficacy testing of spinetoram and Elector against horn flies when applied topically to cattle as a pour-on or topical spray. Spinetoram (120 g/L), Elector (25 g/L spinosad) as described previously were used. Test material was applied to animals as either a whole-body topical spray or neat pour-on. Spinetoram was diluted in water to 25 g/L prior to application as a pour-on. Both materials were diluted in water to 0.04% (400 ppm) for application as a whole-body spray in a total volume of 1 L per animal. There were a total of six animals per treatment group (n=6) plus six negative control animals. Beef and dairy cattle were used. Following treatments, horn flies were released into rooms harboring cattle. Live flies were enumerated 24 h following challenges.

The subject of assay [4] is Lone Star Tick (Amblyomma americanum). Description: Cattle Ectoparasiticide Test, single dose whole-body spray against lone star tick. The format is in vivo.
Source text: as §1
A) Single Dose Efficacy Testing and Comparison of Spinetoram with Elector against Lone Star Tick (Amblyomma americanum) Infestations on Cattle. Technical spinetoram was formulated as a 25 g/L suspension concentrate using the same formulatin components as found in Elector. Test material was applied to animals as a whole-body topical spray. Total of two animals per treatment group; each animal harbored ticks inside of 3 containment units (n=3 per animal or n=6 per treatment group). Concentrates (25 g/L) diluted in water; treatment level equivalent to marketed rate for Elector (0.5 g AI per animal).

Results on one substance are retold here after patent US20150045313A1, “Ectoparasiticidal Methods and Formulations” (Eli Lilly and Company, priority 2009, published 2015).

For the substance Spinetoram, the “topical activity against tick nymphs compared to spinosad” value in assay [1] is given as “equivalent to that of spinosad”. Moreover, the “Spinetoram/Spinosad Potency Ratio” value in assay [2] (Lone Star Tick) is given as 0.4. Further, the “Potency (EC50)” value in assay [2] (Lone Star Tick larvae, 24 h) turned out to be 531.6 ppm. Further, the “GM percent horn fly reduction after 24 hrs, Pour-on” value in assay [3] (cattle, pour-on 2 mg/kg, Initial) came out at 100%. Also, the “GM percent horn fly reduction after 24 hrs, Spray” value in assay [3] (cattle, whole-body spray 0.04% AI, Initial) is listed as 99.9%. Also, in assay [3] (horn fly infested cattle, pour-on (2 mg/kg) or whole-body spray (0.04% AI)), the “therapeutic efficacy compared with Elector” value is reported as “equivalent therapeutic efficacy”. Further, in assay [4] (cattle, whole-body spray 0.5 g AI per animal, Day 1, 2 hr), the “percent tick reduction, 2 hr” value came out at 0%. For the same substance, the “percent tick reduction, 6 hr” value in assay [4] (cattle, whole-body spray 0.5 g AI per animal, Day 1, 6 hr) came out at 0%. For the same substance, the “percent tick reduction, 10 hr” value in assay [4] (cattle, whole-body spray 0.5 g AI per animal, Day 1, 10 hr) is given as 0%. The “percent tick reduction, 24 hr” value in assay [4] (cattle, whole-body spray 0.5 g AI per animal, Day 2, 24 hr) was determined as 0%. Also, in assay [4] (cattle, whole-body spray 0.5 g AI per animal, Day 3, 48 hr), the “percent tick reduction, 48 hr” value is reported as 8.14%. The “percent tick reduction, 72 hr” value in assay [4] (cattle, whole-body spray 0.5 g AI per animal, Day 4, 72 hr) came to 8.14%. Also, the “percent tick reduction, 144 hr” value in assay [4] (cattle, whole-body spray 0.5 g AI per animal, Day 7, 144 hr) turned out to be 46.67%. In assay [4] (speed of kill, adult lone star ticks on cattle, 0.5 g AI per animal), the “ET50” value came out at 148.2 h. Moreover, in assay [4] (topically to cattle at 0.5 g/animal), the “activity (potency and speed of kill) compared to Elector” value was “equivalent activity”.
